Columns and labels:
[1] = Hematology assays after subcutaneous administration in CD-1 mice (Example 6); assay type: in vivo; design: RBC / Eosinophils / Monocytes: unit not given here; conditions: 50 mg/kg subcutaneous twice weekly for 7 weeks
Outline: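 Male CD-1 mice, 8-9 weeks old, 4 per group, given oligonucleotides 50 mg/kg s.c. twice weekly (100 mg/kg/week) for 7 weeks; PBS group as control. Blood analysed on an automated hematology analyzer for blood cell counts and other markers; plasma collected day 28.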

human SMAD7 mRNA = assay: Antisense inhibition of human SMAD7 mRNA expression in Hep3B cells by 3-10-3 cEt gapmers, 10,000 nM, electroporation (Example 2); assay type: cell-based; conditions: approximately 24 hours
Outline: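 qRT-PCR (RTS5062) of SMAD7 mRNA, normalised to RIBOGREEN total RNA, gave percent inhibition relative to untreated controls. Hep3B cells at 20,000 per well received 10,000 nM oligonucleotide by electroporation, with ~24 h treatment.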

[2] = Plasma chemistry markers after oral gavage in beagle dogs (Example 12); conditions: 200 mg oral gavage for 4 weeks, plasma at day 30
Method: The study was conducted to evaluate the tolerability and pharmacodynamics of select human SMAD7 antisense oligonucleotides in beagle dogs following 4 weeks of treatment. The dogs were administered oligonucleotides by oral gavage.
Groups of 24-25 week old male beagle dogs were administered 200 mg Ionis human SMAD7 oligonucleotide by oral gavage once a week for 4 weeks. There were 4 animals per group. A control group of dogs received oral administration of distilled water. Dogs were sacrificed on day 30 approximately 48 hours after the final dose and organs and plasma were harvested for further analysis.
To evaluate the effect of Ionis SMAD7 oligonucleotides on liver and kidney function, approximately 1.5 mL of blood samples were collected and put into tubes without anticoagulant for serum separation. The tubes were kept at room temperature for a minimum of 90 min and then centrifuged (approximately 3,000 rpm for 10 min) to obtain serum. Plasma levels of transaminases, albumin, bilirubin, and BUN were measured using an automated clinical chemistry analyzer (Toshiba 200FR Neo chemistry analyzer, Toshiba Co., Japan).

[3] = Hematology assays after subcutaneous administration in beagle dogs (Example 8); assay type: in vivo; conditions: 30 mg/kg subcutaneous days 1, 3, 5, 8, 15, 22, 29
Method: (§1) There were 4 animals per group.
Blood samples were collected from the cephalic vein or saphenous vein of each animal. About 0.5 mL of blood samples was put into tubes containing the potassium salt of EDTA. Blood obtained from all dog groups was measured using an ADVIA2120i hematology analyzer for measurements of the various blood cells, as well as other hematology markers.

dog SMAD7 mRNA = assay: Pharmacology: dog SMAD7 mRNA expression in liver, kidney, duodenum, ileum and colon after subcutaneous administration in beagle dogs (Example 8); assay type: in vivo; conditions: 30 mg/kg subcutaneous, necropsy, normalized to HPRT1
Method: as §1
The pharmacological activity of the Ionis oligonucleotides in dogs was assessed by measuring dog SMAD7 mRNA expression in liver, kidney, duodenum, ileum, and colon at necropsy. All the human ASOs used are complementary to dog SMAD7 mRNA.
Tissue samples from all dogs were analyzed for SMAD7 mRNA expression using the primer probe set RTS34649 (forward sequence […], designated SEQ ID NO: 2740; reverse sequence […], designated SEQ ID NO: 2741; probe sequence […], designated SEQ ID NO: 2742), which was normalized to mRNA levels of the housekeeping gene, HPRT1. One-way ANOVA with Dunnet's comparison test was used for statistical analysis.

[4] = Plasma chemistry markers after subcutaneous administration in CD-1 mice (Example 6); assay type: in vivo; conditions: CD-1 mice plasma at day 46; 50 mg/kg subcutaneously twice a week for 7 weeks
[5] = Oligonucleotide concentrations in tissues by LC-MS/MS after oral gavage in CD-1 mice (Example 7); assay type: in vivo; conditions: 500 mg/kg oral gavage once daily for 4 weeks, 48 hours after last dose
Method: Groups of 7-8 week old male CD-1 mice were given an oral gavage dose once daily for 4 weeks of 500 mg/kg of Ionis SMAD7 oligonucleotides. Each group contained 8 mice. One group of male CD-1 mice was administered saline by oral gavage daily.
Oligonucleotide concentrations were detected in various tissues by LC-MS/MS analysis. The greatest concentration was found in the kidney, followed by the colon.

[6] = SMAD7 mRNA, Hep3B cells, 10,000 nM antisense oligonucleotide, electroporation, primer probe set RTS5062, relative to untreated control cells

Substance: 798781 (CGTAAGATTCACAGCA; 3-10-3 cEt gapmer, further chemistry not given here) [compound 798781]
- Eosinophils [1]: 2.4
- Hematocrit [1]: 42.3%
- Hemoglobin [1]: 13.8 g/dL
- Lymphocytes [1]: 73.7%
- MCH [1]: 14.9 pg
- MCHC [1]: 32.6 g/dL
- MCV [1]: 45.8 fL
- Monocytes [1]: 5.2
- Neutrophils [1]: 18.8%
- RBC [1]: 9.3
- Reticulocytes [1]: 3.3%
- WBC [1]: 4.9 10^3/μL
- platelets [1]: 867.3 10^3/μL
- % Inhibition (human SMAD7 mRNA; Hep3B cells, electroporation with 10,000 nM antisense oligonucleotide, SMAD7 mRNA by RT-PCR (RTS5062), relative to untreated control cells): 52%
- % Inhibition (human SMAD7 mRNA; [6]): 69%
- ALT (% of control) [2]: 115 % of control
- AST (% of control) [2]: 114 % of control
- Albumin (% of control) [2]: 101 % of control
- BUN (% of control) [2]: 104 % of control
- Bilirubin (% of control) [2]: 114 % of control
- Basophils [3]: 0.5%
- Eosinophils [3]: 2.7%
- Hematocrit [3]: 48%
- Hemoglobin [3]: 16.2 g/dL
- Lymphocytes [3]: 34%
- MCH [3]: 22.3 pg
- MCHC [3]: 33.6 g/dL
- MCV [3]: 67 fL
- Monocytes [3]: 6.5%
- Neutrophils [3]: 56%
- PLT [3]: 191 ^3/μL
- RBC [3]: 7.3 ^6/L
- Reticulocytes [3]: 0.6%
- WBC [3]: 7.3 ^3/μL
- % inhibition of SMAD7 mRNA expression (compared to control), Distal colon (dog SMAD7 mRNA): 34%
- % inhibition of SMAD7 mRNA expression (compared to control), Duodenum (dog SMAD7 mRNA): 0%
- % inhibition of SMAD7 mRNA expression (compared to control), Ileum (dog SMAD7 mRNA): 0%
- % inhibition of Smad7 mRNA expression (compared to control), Kidney (dog SMAD7 mRNA): 28%
- % inhibition of Smad7 mRNA expression (compared to control), Liver (dog SMAD7 mRNA): 0%
- % inhibition of SMAD7 mRNA expression (compared to control), Proximal colon (dog SMAD7 mRNA): 26%
- ALT [4]: 40 IU/L
- AST [4]: 66 IU/L
- Albumin [4]: 2.2 g/dL
- BUN [4]: 26 mg/dL
- Oligonucleotide concentration, Colon [5]: 4.4 µg/g
- Oligonucleotide concentration, Duodenum [5]: 0.7 µg/g
- Oligonucleotide concentration, Ileum [5]: 2.9 µg/g
- Oligonucleotide concentration, Kidney [5]: 45.2 µg/g
- Oligonucleotide concentration, Liver [5]: 2.9 µg/g

Substance: 790615 (CCAATGAGAATGCTTC; 3-10-3 cEt gapmer, further chemistry not given here) [compound 790615]
- Eosinophils [1]: 2.5
- Hematocrit [1]: 46.2%
- Hemoglobin [1]: 15.2 g/dL
- Lymphocytes [1]: 82.8%
- MCH [1]: 14.7 pg
- MCHC [1]: 32.8 g/dL
- MCV [1]: 44.8 fL
- Monocytes [1]: 5.0
- Neutrophils [1]: 9.7%
- RBC [1]: 10.3
- Reticulocytes [1]: 3.5%
- WBC [1]: 10.5 10^3/μL
- platelets [1]: 1055.8 10^3/μL
- Basophils ([1]; n.d. = below detection levels): 0.1 10^3/μL
- % Inhibition (human SMAD7 mRNA; Hep3B cells, electroporation with 10,000 nM antisense oligonucleotide, primer probe set RTS5062, relative to untreated control cells): 38%
- % Inhibition (human SMAD7 mRNA; [6]): 40%
- ALT (% of control) [2]: 118 % of control
- AST (% of control) [2]: 147 % of control
- Albumin (% of control) [2]: 98 % of control
- BUN (% of control) [2]: 108 % of control
- Bilirubin (% of control) [2]: 102 % of control
- Basophils [3]: 0.5%
- Eosinophils [3]: 2.6%
- Hematocrit [3]: 45%
- Hemoglobin [3]: 14.5 g/dL
- Lymphocytes [3]: 36%
- MCH [3]: 21.9 pg
- MCHC [3]: 32.5 g/dL
- MCV [3]: 68 fL
- Monocytes [3]: 7.9%
- Neutrophils [3]: 53%
- PLT [3]: 242 ^3/μL
- RBC [3]: 6.6 ^6/L
- Reticulocytes [3]: 0.7%
- WBC [3]: 7.1 ^3/μL
- % inhibition of SMAD7 mRNA expression (compared to control), Distal colon (dog SMAD7 mRNA): 31%
- % inhibition of SMAD7 mRNA expression (compared to control), Duodenum (dog SMAD7 mRNA): 35%
- % inhibition of SMAD7 mRNA expression (compared to control), Ileum (dog SMAD7 mRNA): 0%
- % inhibition of Smad7 mRNA expression (compared to control), Kidney (dog SMAD7 mRNA): 37%
- % inhibition of Smad7 mRNA expression (compared to control), Liver (dog SMAD7 mRNA): 9%
- % inhibition of SMAD7 mRNA expression (compared to control), Proximal colon (dog SMAD7 mRNA): 41%
- ALT [4]: 65 IU/L
- AST [4]: 97 IU/L
- Albumin [4]: 2.2 g/dL
- BUN [4]: 22 mg/dL
- Oligonucleotide concentration, Colon [5]: 2.9 µg/g
- Oligonucleotide concentration, Duodenum [5]: 0.9 µg/g
- Oligonucleotide concentration, Ileum [5]: 1.6 µg/g
- Oligonucleotide concentration, Kidney [5]: 23.6 µg/g
- Oligonucleotide concentration, Liver [5]: 2.8 µg/g
